Experimental data from patent US20120277265A1, “NOVEL POLYQUINOLINE DERIVATIVES AND THE THERAPEUTIC USE THEREOF” (CENTRE NATIONAL DE LA RECHERCHE SCIENTIFIQUE (C.N.R.S.), priority 2005, published 2012).

What was measured:
[1] = 25° C., cited from earlier work; for log K1 (stability constant for the MLc species), Zn(II): ionic strength 0.1-0.2, metal ion to chelator 1/1
[2] = Stability constants of competing chelators for Zn(II) (NIST / Sillen-Martell; log Kapp by Eq. 1-2); details: at pH = 7.4, by Eq. 1 and 2
Text: log Kapp=log K-log α (Eq. 1)
α=[H^+]^n/(Ka1×Ka2×Ka3× . . . Kan)+[H^+]^n-1/(Ka1×Ka2×Ka3× . . . Kan-1)+ . . . +[H^+]/Ka1+1 (Eq. 2)

Compound	log K1 (stability constant for the MLc species), Zn(II) [1]	log K2 (stability constant for the M(Lc)2 species), Zn(II) ([1]; ionic strength 0.1-0.2)	log K1 app, Zn(II) [2]
O=C(O)CN(CC(=O)O)CC(=O)O [NTA, nitrilotriacetic acid]	10.5	3.8	8.0
NCCNCCNCCN [Trien, triethylenetetramine]	11.9	–	7.8
